Reference: patent US12084445B2, “Broad-spectrum carbapenems” (VenatoRx Pharmaceuticals, Inc., priority 2018, dated 2024)

Tests used:
Type in all cases: cell-based
[1] = system: S. aureus ATCC 33591 (methicillin-resistant); assay: broth microdilution MIC assay, S. aureus ATCC 33591; details: Staphylococcus aureus, ATCC 33591 / MRSA; Table 3; S. aureus 33591 (MRSA); read-out: S. aureus 33591 (MRSA) MIC
Procedure: (§1) To determine the ability of test compounds to potentiate the inhibition of the growth of bacterial strains, classic cell-based broth microdilution MIC assays were employed. MIC assays are performed according to CLSI methods except where otherwise noted (CLSI, 2011 and CLSI, 2009). The reference strains S. aureus ATCC 29213 (methicillin sensitive), S. aureus ATCC 33591 (methicillin-resistant), E. coli ATCC 25922 (wild-type/QC strain), P. aeruginosa ATCC 27853 (wild-type/QC strain), and the clinical isolate P. aeruginosa PA 8 were used to determine the ability of the exemplary carbapenem compounds to inhibit bacterial growth. An expanded panel of methicillin resistance S. aureus (MRSA) and Pseudomonas was also used to determine the ability of exemplary carbapenem compounds to inhibit bacterial growth across a broader representation of those species. To determine activity in MRSA and in addition to S. aureus ATCC 33591, S. aureus USA 300, USA 400 and USA 600, some of the most common clones found to cause human infection, were also used. To further gauge the impact on the carbapenem compounds due to various resistance mechanisms in Pseudomonas, the following strains were included: P. aeruginosa 35151 (hyper-permeable strain), P. aeruginosa AmexAB-OprM (an efflux pump knockout), and P. aeruginosa PA 3 (a clinical isolate of reduced carbapenem susceptibility). Briefly, cryo-preserved bacterial cultures of clinical strains are streaked for isolation on appropriate agar medium, in this case Mueller Hinton II agar. Following incubation to allow formation of colonies, these plates are sealed with parafilm and stored refrigerated for up to two weeks. For preparation of assay inocula and to ensure low variability, at least 5 colonies are picked from the agar plates with an inoculating loop and aseptically transferred to a culture tube containing 3 mL of Mueller-Hinton Broth (supplemented with divalent cations to required levels based on Manufacturers' specification). The broth culture is grown for 3-5 hours at 37° C. with shaking at 200 rpm. Meanwhile, 2-fold serial dilutions of test compounds are conducted in a 96 well plate with a final volume of 75 μL per well at 2-fold the final desired concentration. After the dilution plates are set up the growing cultures are then diluted in a cuvette containing MH II broth and the optical density is measured at 600 nm. Inocula are diluted such that 75 μL of this culture in Mueller-Hinton Broth results in a starting bacterial concentration of 5×10^5 CFU/mL when added to the dilution plates. The plates are incubated 16-20 hours at 37° C. The MIC is read visually as the lowest concentration well with no bacterial growth.
(§2) Representative results are shown in Tables 3, 4, and 5 where A represents an MIC>32 μg/mL, B represents an MIC between 8 and 32 μg/mL inclusive, C represents an MIC between 1 and 4 μg/mL inclusive, and D represents an MIC of <1 μg/mL. NT=Not Tested.

[2] = system: E. coli ATCC 25922 (wild-type/QC strain); assay: broth microdilution MIC assay, E. coli ATCC 25922; details: Escherichia coli, ATCC25922; Table 3; E. coli 25922; read-out: E. coli 25922 MIC
Procedure: as §1, §2

[3] = system: P. aeruginosa ATCC 27853 (wild-type/QC strain); assay: broth microdilution MIC assay, P. aeruginosa ATCC 27853; details: Pseudomonas aeruginosa, ATCC27853; Table 3; P. aeruginosa 27853; read-out: P. aeruginosa 27853 MIC
Procedure: as §1, §2

[4] = system: clinical isolate P. aeruginosa PA 8; assay: broth microdilution MIC assay, P. aeruginosa PA 8; details: Pseudomonas aeruginosa; Table 3; P. aeruginosa PA8
Procedure: as §1, §2

MIC [1] | MIC [2] | MIC [3] | MIC [4] | SMILES
8 to 32 µg/mL | < 1 µg/mL | 8 to 32 µg/mL | 8 to 32 µg/mL | C[C@@H](O)[C@H]1C(=O)N2C(C(=O)O)=C(S[C@@H]3CCN(C4CCC(NCCCB(O)O)CC4)C3)[C@H](C)[C@H]12 (stereo partly drawn) [Example 3, (4R,5S,6S)-3-(((R)-1-(4-((3-boronopropyl)amino)cyclohexyl)pyrrolidin-3-yl)thio)-6-((R)-1-hydroxyethyl)-4-methyl-7-oxo-1-azabicyclo[3.2.0]hept-2-ene-2-carboxylic acid]
8 to 32 µg/mL | < 1 µg/mL | 1 to 4 µg/mL | 1 to 4 µg/mL | C[C@@H](O)[C@H]1C(=O)N2C(C(=O)O)=C(S[C@@H]3CCN(C[C@H]4CC[C@H](CN)CC4)C3)[C@H](C)[C@H]12 [Example 17, (4R,5S,6S)-3-(((R)-1-(((1r,4R)-4-(aminomethyl)cyclohexyl)methyl)pyrrolidin-3-yl)thio)-6-((R)-1-hydroxyethyl)-4-methyl-7-oxo-1-azabicyclo[3.2.0]hept-2-ene-2-carboxylic acid]
8 to 32 µg/mL | < 1 µg/mL | 1 to 4 µg/mL | 1 to 4 µg/mL | CNC[C@H]1CC[C@H](CN2CC[C@@H](SC3=C(C(=O)O)N4C(=O)[C@H]([C@@H](C)O)[C@H]4[C@H]3C)C2)CC1 [Example 18, (4R,5S,6S)-6-((R)-1-hydroxyethyl)-4-methyl-3-(((R)-1-(((1r,4R)-4-((methylamino)methyl)cyclohexyl)methyl)pyrrolidin-3-yl)thio)-7-oxo-1-azabicyclo[3.2.0]hept-2-ene-2-carboxylic acid]
8 to 32 µg/mL | < 1 µg/mL | 1 to 4 µg/mL | 1 to 4 µg/mL | C[C@@H](O)[C@H]1C(=O)N2C(C(=O)O)=C(S[C@@H]3CCN(CCN4CCNCC4)C3)[C@H](C)[C@H]12 [Example 20, (4R,5S,6S)-6-((R)-1-hydroxyethyl)-4-methyl-7-oxo-3-(((R)-1-(2-(piperazin-1-yl)ethyl)pyrrolidin-3-yl)thio)-1-azabicyclo[3.2.0]hept-2-ene-2-carboxylic acid]
8 to 32 µg/mL | < 1 µg/mL | 1 to 4 µg/mL | 1 to 4 µg/mL | CN[C@H]1CC[C@H](CN2CC[C@@H](SC3=C(C(=O)O)N4C(=O)[C@H]([C@@H](C)O)[C@H]4[C@H]3C)C2)CC1 [Example 21, (4R,5S,6S)-6-((R)-1-hydroxyethyl)-4-methyl-3-(((R)-1-(((1r,4R)-4-(methylamino)cyclohexyl)methyl)pyrrolidin-3-yl)thio)-7-oxo-1-azabicyclo[3.2.0]hept-2-ene-2-carboxylic acid]
8 to 32 µg/mL | < 1 µg/mL | 1 to 4 µg/mL | 1 to 4 µg/mL | C[C@@H](O)[C@H]1C(=O)N2C(C(=O)O)=C(S[C@@H]3CCN([C@H]4CC[C@@H](N)CC4)C3)[C@H](C)[C@H]12 [Example 23, (4R,5S,6S)-3-(((R)-1-((1r,4R)-4-aminocyclohexyl)pyrrolidin-3-yl)thio)-6-((R)-1-hydroxyethyl)-4-methyl-7-oxo-1-azabicyclo[3.2.0]hept-2-ene-2-carboxylic acid]
8 to 32 µg/mL | < 1 µg/mL | 8 to 32 µg/mL | 1 to 4 µg/mL | CC(C1CCNCC1)N1CC[C@@H](SC2=C(C(=O)O)N3C(=O)[C@H]([C@@H](C)O)[C@H]3[C@H]2C)C1 (stereo partly drawn) [Example 25, (4R,5S,6S)-6-((R)-1-hydroxyethyl)-4-methyl-7-oxo-3-(((3R)-1-(1-(piperidin-4-yl)ethyl)pyrrolidin-3-yl)thio)-1-azabicyclo[3.2.0]hept-2-ene-2-carboxylic acid]
> 32 µg/mL | < 1 µg/mL | 1 to 4 µg/mL | 1 to 4 µg/mL | C[C@@H](O)[C@H]1C(=O)N2C(C(=O)O)=C(S[C@@H]3CCN(CC4CCN(CCN)CC4)C3)[C@H](C)[C@H]12 [Example 26, (4R,5S,6S)-3-(((R)-1-((1-(2-aminoethyl)piperidin-4-yl)methyl)pyrrolidin-3-yl)thio)-6-((R)-1-hydroxyethyl)-4-methyl-7-oxo-1-azabicyclo[3.2.0]hept-2-ene-2-carboxylic acid]
8 to 32 µg/mL | < 1 µg/mL | 1 to 4 µg/mL | 1 to 4 µg/mL | C[C@@H](O)[C@H]1C(=O)N2C(C(=O)O)=C(S[C@@H]3CCN(C4CCN(CCN)CC4)C3)[C@H](C)[C@H]12 [Example 27, (4R,5S,6S)-3-(((R)-1-(1-(2-aminoethyl)piperidin-4-yl)pyrrolidin-3-yl)thio)-6-((R)-1-hydroxyethyl)-4-methyl-7-oxo-1-azabicyclo[3.2.0]hept-2-ene-2-carboxylic acid]
8 to 32 µg/mL | < 1 µg/mL | 8 to 32 µg/mL | 1 to 4 µg/mL | CC1CC(CN2CC[C@@H](SC3=C(C(=O)O)N4C(=O)[C@H]([C@@H](C)O)[C@H]4[C@H]3C)C2)CCN1 (stereo partly drawn) [Example 28, (4R,5S,6S)-6-((R)-1-hydroxyethyl)-4-methyl-3-(((3R)-1-((2-methylpiperidin-4-yl)methyl)pyrrolidin-3-yl)thio)-7-oxo-1-azabicyclo[3.2.0]hept-2-ene-2-carboxylic acid]
8 to 32 µg/mL | < 1 µg/mL | 8 to 32 µg/mL | 1 to 4 µg/mL | CNCc1ccc(CN2CC[C@@H](SC3=C(C(=O)O)N4C(=O)[C@H]([C@@H](C)O)[C@H]4[C@H]3C)C2)cn1 [Example 29, (4R,5S,6S)-6-((R)-1-hydroxyethyl)-4-methyl-3-(((R)-1-((6-((methylamino)methyl)pyridin-3-yl)methyl)pyrrolidin-3-yl)thio)-7-oxo-1-azabicyclo[3.2.0]hept-2-ene-2-carboxylic acid]
8 to 32 µg/mL | < 1 µg/mL | 8 to 32 µg/mL | 1 to 4 µg/mL | C[C@@H](O)[C@H]1C(=O)N2C(C(=O)O)=C(S[C@@H]3CCN(CC4CCNC(CN)C4)C3)[C@H](C)[C@H]12 (stereo partly drawn) [Example 30, (4R,5S,6S)-3-(((3R)-1-((2-(aminomethyl)piperidin-4-yl)methyl)pyrrolidin-3-yl)thio)-6-((R)-1-hydroxyethyl)-4-methyl-7-oxo-1-azabicyclo[3.2.0]hept-2-ene-2-carboxylic acid]
1 to 4 µg/mL | < 1 µg/mL | 8 to 32 µg/mL | 8 to 32 µg/mL | C[C@@H](O)[C@H]1C(=O)N2C(C(=O)O)=C(S[C@@H]3CCN(Cc4ccc(CN)c(CN)c4)C3)[C@H](C)[C@H]12 [Example 31, (4R,5S,6S)-3-(((R)-1-(3,4-bis(aminomethyl)benzyl)pyrrolidin-3-yl)thio)-6-((R)-1-hydroxyethyl)-4-methyl-7-oxo-1-azabicyclo[3.2.0]hept-2-ene-2-carboxylic acid]
8 to 32 µg/mL | 8 to 32 µg/mL | 8 to 32 µg/mL | 8 to 32 µg/mL | C[C@@H](O)[C@H]1C(=O)N2C(C(=O)O)=C(S[C@@H]3CCN(CC4CNCCN4S(C)(=O)=O)C3)[C@H](C)[C@H]12 (stereo partly drawn) [Example 32, (4R,5S,6S)-6-((R)-1-hydroxyethyl)-4-methyl-3-(((3R)-1-((1-(methylsulfonyl)piperazin-2-yl)methyl)pyrrolidin-3-yl)thio)-7-oxo-1-azabicyclo[3.2.0]hept-2-ene-2-carboxylic acid]
8 to 32 µg/mL | < 1 µg/mL | 1 to 4 µg/mL | 1 to 4 µg/mL | C[C@@H](O)[C@H]1C(=O)N2C(C(=O)[O-])=C(S[C@@H]3CC[N+](C)(CC4CCNCC4)C3)[C@H](C)[C@H]12 (stereo partly drawn) [Example 33, (4R,5S,6S)-6-((R)-1-hydroxyethyl)-4-methyl-3-(((3R)-1-methyl-1-(piperidin-4-ylmethyl)pyrrolidin-1-ium-3-yl)thio)-7-oxo-1-azabicyclo[3.2.0]hept-2-ene-2-carboxylate]
